According to PubChem BioAssay AID1963846 (Molecular Pharmacology Branch, DTP, NCI, 2024):
pIC50: −log10 of the molar value.

System: 454973-116-R2-J3-PDC complex spheroid viability
Test: Anticancer human tumor 454973-116-R2-J3-PDC patient-derived pancreatic carcinoma cell line growth inhibition [POLQ]
Conditions: for pIC50: curve of first compound; for viability, T/C: stronger effect = lower value
How it was run: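 Complex spheroid viability model combining PDC tumour cells with endothelial (HUVEC) and MSC stromal cells. Novobiocin, ART-558 or RP6685 were tested singly and in combination with standard and investigational anticancer drugs. Each was titrated in half-log steps from near clinical Cmax, or from 10 microM where Cmax was unknown.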

[1] = second compound 0.0316 µM, first compound 0.0316 µM
[2] = second compound 0.0316 µM, first compound 0.1 µM
[3] = second compound 0.0316 µM, first compound 0.316 µM
[4] = second compound 0.0316 µM, first compound 1 µM
[5] = second compound 0.0316 µM, first compound 3.16 µM
[6] = second compound 0.0316 µM, first compound 10 µM
[7] = second compound 0.1 µM, first compound 0.0316 µM
[8] = second compound 0.1 µM, first compound 0.1 µM
[9] = second compound 0.1 µM, first compound 0.316 µM
[10] = second compound 0.1 µM, first compound 1 µM
[11] = second compound 0.1 µM, first compound 3.16 µM
[12] = second compound 0.1 µM, first compound 10 µM
[13] = second compound 0.316 µM, first compound 0.0316 µM
[14] = second compound 0.316 µM, first compound 0.1 µM
[15] = second compound 0.316 µM, first compound 0.316 µM
[16] = second compound 0.316 µM, first compound 1 µM
[17] = second compound 0.316 µM, first compound 3.16 µM
[18] = second compound 0.316 µM, first compound 10 µM
[19] = second compound 1 µM, first compound 0.0316 µM
[20] = second compound 1 µM, first compound 0.1 µM
[21] = second compound 1 µM, first compound 0.316 µM
[22] = second compound 1 µM, first compound 1 µM
[23] = second compound 1 µM, first compound 3.16 µM
[24] = second compound 1 µM, first compound 10 µM
[25] = second compound 3.16 µM, first compound 0.0316 µM
[26] = second compound 3.16 µM, first compound 0.1 µM
[27] = second compound 3.16 µM, first compound 0.316 µM
[28] = second compound 3.16 µM, first compound 1 µM
[29] = second compound 3.16 µM, first compound 3.16 µM
[30] = second compound 3.16 µM, first compound 10 µM
[31] = second compound 10 µM, first compound 0.0316 µM
[32] = second compound 10 µM, first compound 0.1 µM
[33] = second compound 10 µM, first compound 0.316 µM
[34] = second compound 10 µM, first compound 1 µM
[35] = second compound 10 µM, first compound 3.16 µM
[36] = second compound 10 µM, first compound 10 µM
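Note: spheroids exposed to drugs for seven days before measurement.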
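Throughout, for viability, T/C: percent viability relative to DMSO vehicle control wells taken as 100%.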

## CCc1cc2c(N3CCc4c(cc(Cn5ccnc5)cc4-c4cn(C)nc4C(F)(F)F)C3=O)cc(C)nc2c(OC)n1 + Nc1ccc(C#CCN(C(=O)Cc2ncc(C(F)(F)F)cc2C(F)(F)F)c2ccc(F)cc2)nn1
Second compound 0.0316 µM
  pIC50: < 5.00
Second compound 0.1 µM
  pIC50: < 5.00
Second compound 0.316 µM
  pIC50: < 5.00
Second compound 1 µM
  pIC50: < 5.00
Second compound 3.16 µM
  pIC50: < 5.00
Second compound 10 µM
  pIC50: < 5.00
[1]
  viability, T/C: 99.6%
[2]
  viability, T/C: 87.8%
[3]
  viability, T/C: 73.5%
[4]
  viability, T/C: 72.2%
[5]
  viability, T/C: 64.4%
[6]
  viability, T/C: 56.5%
[7]
  viability, T/C: 99.1%
[8]
  viability, T/C: 88.4%
[9]
  viability, T/C: 82.6%
[10]
  viability, T/C: 74.2%
[11]
  viability, T/C: 63.2%
[12]
  viability, T/C: 56.9%
[13]
  viability, T/C: 96.2%
[14]
  viability, T/C: 91.1%
[15]
  viability, T/C: 78.9%
[16]
  viability, T/C: 79.2%
[17]
  viability, T/C: 70.8%
[18]
  viability, T/C: 55%
[19]
  viability, T/C: 97.7%
[20]
  viability, T/C: 87.3%
[21]
  viability, T/C: 81.6%
[22]
  viability, T/C: 79%
[23]
  viability, T/C: 63%
[24]
  viability, T/C: 50.9%
[25]
  viability, T/C: 101%
[26]
  viability, T/C: 95.3%
[27]
  viability, T/C: 90.8%
[28]
  viability, T/C: 84.5%
[29]
  viability, T/C: 68.3%
[30]
  viability, T/C: 59.6%
[31]
  viability, T/C: 100%
[32]
  viability, T/C: 114%
[33]
  viability, T/C: 86.3%
[34]
  viability, T/C: 78.6%
[35]
  viability, T/C: 80.1%
[36]
  viability, T/C: 56.8%

## C#Cc1c(F)ccc2cc(O)cc(-c3ncc4c(N5CC6CCC(C5)N6)nc(OCC56CCCN5CC(F)C6)nc4c3F)c12 (stereo not drawn) + COC1C(OC(N)=O)C(O)C(Oc2ccc3c(O)c(NC(=O)c4ccc(O)c(CC=C(C)C)c4)c(=O)oc3c2C)OC1(C)C
Second compound 0.0316 µM
  pIC50: 6.97
Second compound 0.1 µM
  pIC50: 6.82
Second compound 0.316 µM
  pIC50: 6.90
Second compound 1 µM
  pIC50: 6.98
Second compound 3.16 µM
  pIC50: 6.88
Second compound 10 µM
  pIC50: 6.85
[1]
  viability, T/C: 72.4%
[2]
  viability, T/C: 48.9%
[3]
  viability, T/C: 40%
[4]
  viability, T/C: 31.8%
[5]
  viability, T/C: 31.9%
[6]
  viability, T/C: 23.4%
[7]
  viability, T/C: 68.2%
[8]
  viability, T/C: 55.6%
[9]
  viability, T/C: 40.1%
[10]
  viability, T/C: 30.3%
[11]
  viability, T/C: 39.8%
[12]
  viability, T/C: 25.3%
[13]
  viability, T/C: 83.9%
[14]
  viability, T/C: 52.4%
[15]
  viability, T/C: 39.2%
[16]
  viability, T/C: 29.7%
[17]
  viability, T/C: 27.8%
[18]
  viability, T/C: 26.7%
[19]
  viability, T/C: 67.3%
[20]
  viability, T/C: 52.3%
[21]
  viability, T/C: 34.7%
[22]
  viability, T/C: 38.3%
[23]
  viability, T/C: 31.1%
[24]
  viability, T/C: 27.9%
[25]
  viability, T/C: 69.7%
[26]
  viability, T/C: 53.4%
[27]
  viability, T/C: 41%
[28]
  viability, T/C: 29.8%
[29]
  viability, T/C: 32.9%
[30]
  viability, T/C: 24.2%
[31]
  viability, T/C: 63%
[32]
  viability, T/C: 56.6%
[33]
  viability, T/C: 35%
[34]
  viability, T/C: 30.1%
[35]
  viability, T/C: 26.6%
[36]
  viability, T/C: 22.6%

## CCCS(=O)(=O)Nc1ccc(F)c(C(=O)c2c[nH]c3ncc(-c4ccc(Cl)cc4)cc23)c1F + Cc1cccc(N(C)C(=O)C2C(O)CCN2c2nc(C)cc(C(F)(F)F)c2C#N)c1
Second compound 0.0316 µM
  pIC50: 5.09
Second compound 0.1 µM
  pIC50: 5.06
Second compound 0.316 µM
  pIC50: 5.05
Second compound 1 µM
  pIC50: 5.08
Second compound 3.16 µM
  pIC50: 5.09
Second compound 10 µM
  pIC50: 5.16
[1]
  viability, T/C: 108%
[2]
  viability, T/C: 116%
[3]
  viability, T/C: 112%
[4]
  viability, T/C: 118%
[5]
  viability, T/C: 113%
[6]
  viability, T/C: 36.7%
[7]
  viability, T/C: 105%
[8]
  viability, T/C: 111%
[9]
  viability, T/C: 115%
[10]
  viability, T/C: 122%
[11]
  viability, T/C: 111%
[12]
  viability, T/C: 42.1%
[13]
  viability, T/C: 108%
[14]
  viability, T/C: 116%
[15]
  viability, T/C: 118%
[16]
  viability, T/C: 113%
[17]
  viability, T/C: 123%
[18]
  viability, T/C: 42.7%
[19]
  viability, T/C: 136%
[20]
  viability, T/C: 110%
[21]
  viability, T/C: 114%
[22]
  viability, T/C: 111%
[23]
  viability, T/C: 126%
[24]
  viability, T/C: 37.3%
[25]
  viability, T/C: 117%
[26]
  viability, T/C: 110%
[27]
  viability, T/C: 104%
[28]
  viability, T/C: 105%
[29]
  viability, T/C: 115%
[30]
  viability, T/C: 36.8%
[31]
  viability, T/C: 120%
[32]
  viability, T/C: 112%
[33]
  viability, T/C: 110%
[34]
  viability, T/C: 111%
[35]
  viability, T/C: 118%
[36]
  viability, T/C: 20.3%

## C=CC(=O)N1CCN(c2nc(=O)n(-c3c(C)ccnc3C(C)C)c3nc(-c4c(O)cccc4F)c(F)cc23)C(C)C1 (stereo not drawn) + Nc1ccc(C#CCN(C(=O)Cc2ncc(C(F)(F)F)cc2C(F)(F)F)c2ccc(F)cc2)nn1
Second compound 0.0316 µM
  pIC50: < 5.00
Second compound 0.1 µM
  pIC50: < 5.00
Second compound 0.316 µM
  pIC50: < 5.00
Second compound 1 µM
  pIC50: < 5.00
Second compound 3.16 µM
  pIC50: < 5.00
Second compound 10 µM
  pIC50: < 5.00
[1]
  viability, T/C: 103%
[2]
  viability, T/C: 106%
[3]
  viability, T/C: 110%
[4]
  viability, T/C: 111%
[5]
  viability, T/C: 113%
[6]
  viability, T/C: 113%
[7]
  viability, T/C: 103%
[8]
  viability, T/C: 97.1%
[9]
  viability, T/C: 110%
[10]
  viability, T/C: 114%
[11]
  viability, T/C: 111%
[12]
  viability, T/C: 117%
[13]
  viability, T/C: 102%
[14]
  viability, T/C: 106%
[15]
  viability, T/C: 107%
[16]
  viability, T/C: 106%
[17]
  viability, T/C: 124%
[18]
  viability, T/C: 116%
[19]
  viability, T/C: 102%
[20]
  viability, T/C: 110%
[21]
  viability, T/C: 109%
[22]
  viability, T/C: 123%
[23]
  viability, T/C: 121%
[24]
  viability, T/C: 114%
[25]
  viability, T/C: 111%
[26]
  viability, T/C: 118%
[27]
  viability, T/C: 120%
[28]
  viability, T/C: 123%
[29]
  viability, T/C: 125%
[30]
  viability, T/C: 114%
[31]
  viability, T/C: 118%
[32]
  viability, T/C: 113%
[33]
  viability, T/C: 116%
[34]
  viability, T/C: 123%
[35]
  viability, T/C: 137%
[36]
  viability, T/C: 116%
